Common to all, as to assay: NCI-60 cell line screen, 48 h
The subject of test [1] is CAKI-1 renal.
The subject of test [2] is COLO 205 colon.
For test [3], the system named is HS 578T breast.
Test [4] has as its system IGROV1 ovarian.
Test [5] deals with NCI/ADR-RES ovarian.
Test [6] deals with OVCAR-8 ovarian.
The test system of test [7] is RPMI-8226 leukemia.
Test [8] concerns SF-268 CNS.
Test [9] concerns SK-OV-3 ovarian.
Test [10] has as its system TK-10 renal.

Results on seven compounds are retold here after PubChem BioAssay (NCI).

Each structure is given as a SMILES string. Several values for one entry are separate records, joined by “and”; a condition that tells them apart may be missing. Identical values can stand only once.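 1) Cells in 96-well plates. 2) Compound, 48 h, 5 concentrations. 3) Linear interpolation between surrounding doses. 4) Unreached endpoint = highest concentration. GI50: concentration for 50% inhibition of growth. TGI: concentration producing complete growth inhibition.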 Where only a bound is given, the exact number is not on record here.

As to `Nc1c(C(=O)c2cccc(-c3cccnc3)c2)cnn1-c1ccc(F)cc1F`, the GI50 in test [1] is 4.53 µM; in test [2], 1.19 µM; in test [3], 7.44 µM; in test [4], 2.06 µM; in [5] it was 1.2 µM; in [6] it was 8.13 µM. Moreover, the GI50 was 9.54 µM in test [7], 10.8 µM in [8], 7.21 µM in test [9] and 6.43 µM in test [10]. Besides, the TGI is > 25 µM in test [1]; > 25 µM in [2]; > 25 µM in test [3]; > 25 µM in [4]; > 21.9 µM in test [5]; > 25 µM in test [6]. The TGI in [7], in test [8], in [9] and in test [10] was > 25 µM throughout.

Consider `NC(=O)Nc1cc(-c2cccc(F)c2)sc1C(=O)N[C@H]1CCCNC1`, for which the GI50 in [1] is 0.184 µM and 0.888 µM; in test [2] it was 0.169 µM and 0.216 µM; in test [3], 0.0322 µM and 0.197 µM; in test [4], 0.0701 µM and 0.27 µM; in test [5] it was 2.19 µM and 3.16 µM; in test [6] it was 0.131 µM and 0.318 µM. In addition, the GI50 was 0.66 µM and 0.482 µM in test [7]; 0.327 µM and 0.458 µM in [8]; 0.132 µM and 0.329 µM in test [9]; 0.111 µM and 0.251 µM in test [10]. Moreover, the TGI in test [1] was > 3.98 µM and 4.2 µM; in test [2], 0.937 µM and 0.645 µM; in test [4], 1.16 µM and 1.74 µM; in [5] it was > 10 µM and 19.8 µM; in [6], > 3.36 µM and 2.04 µM; in test [7], > 8.22 µM and 6.11 µM. The TGI in test [8] is 3.35 µM and 4.14 µM; in [9] it was 1.69 µM and 3.17 µM; in test [10], 1.58 µM and 1.38 µM.

Take `C[C@]12CC[C@@H]3c4ccc(O)cc4CC[C@H]3[C@@H]1Cc1cnc(N)nc12`: the GI50 in [1] is 23.8 µM; in [2], 13.7 µM; in test [3], 18.4 µM; in test [4], 35.1 µM; in test [5] it was 17.7 µM; in test [6], 92.9 µM. Further, the GI50 in [7] is 12.7 µM; in test [8], 13.5 µM; in [9] it was 12.8 µM; in test [10], 18.9 µM. For the same compound, the TGI in test [1] is 49.8 µM; in test [2] it was 27.6 µM; in test [3], 40.7 µM; in [4], > 100 µM; in test [5], 41.4 µM; in [6], > 100 µM. Further, the TGI was found to be 31.4 µM in test [7], 38.8 µM in test [8], 33.5 µM in [9] and 42.7 µM in test [10].

Regarding `CN(C)CC1CCC2=C(C1=O)C(c1ccc(Cl)c(Cl)c1)C1=C(CCC(CN(C)C)C1=O)O2` (centres undefined), the GI50 was 1.58 µM in test [1]; 5.48 µM in [2]; 15.6 µM in test [3]; 4.54 µM in test [4]; 19.4 µM in [5]; 4.25 µM in test [6]. In addition, the GI50 in [7] was 0.389 µM; in test [8], 15.6 µM; in test [9], 13.3 µM; in [10] it was 0.7 µM. Moreover, the TGI in test [1] is 3.03 µM; in [2] it was 19.6 µM; in [3], 36.2 µM; in test [4], 8.97 µM; in test [5], 57.4 µM; in [6], 16 µM. The TGI turned out to be 4.36 µM in test [7], 29.5 µM in test [8], 26 µM in test [9] and 1.98 µM in [10].

On to `C#CCNCCN1C(=O)c2ccc3c4c(ccc(c24)C1=O)C(=O)N(CCNCC#C)C3=O`, for which the GI50 in test [1] was 5.05 µM; in [2] it was 2 µM; in test [3], 8.35 µM; in test [4] it was 2.07 µM; in test [5], 4.07 µM; in test [6], 2.25 µM. The GI50 in test [7] was 10.6 µM; in test [8], 3.78 µM; in [9], 6.3 µM; in test [10], 7.38 µM. The TGI in [1] stood at 15.6 µM; in test [2] it was 6.92 µM; in test [3], 29.2 µM; in [4], 10.4 µM; in test [5] it was 24.4 µM; in test [6] it was 20.8 µM. Further, the TGI in test [7] turned out to be 43.2 µM; in [8] it was 24.2 µM; in [9], 22.6 µM; in test [10], 23.8 µM.

Regarding `O=C1NOC(c2ccc(O)cc2)(c2ccc(O)cc2)c2ccccc21`, the GI50 in test [1], in [2], in [3], in test [4], in [5] and in [6] was > 100 µM in each case. For the same compound, the GI50 in [7], in [8], in [9] and in [10] was > 100 µM in each case. Further, the TGI in test [1], in test [2], in [3], in test [4], in test [5] and in test [6] was > 100 µM each time. Also, the TGI in test [7], in [8], in [9] and in test [10] was > 100 µM each time.

In the case of `Cc1cn2c(/C=C3/C(=O)Nc4ccc(O)cc43)c(C)nc2s1`, the GI50 in test [1] was 3.28 µM; in test [2] it was 3.58 µM; in test [3], 2.68 µM; in test [4], 7.23 µM; in test [5] it was 20.9 µM; in test [6], 10.4 µM. The GI50 in test [7] was 1.93 µM; in test [8] it was 3.42 µM; in [9] it was 3.8 µM; in [10], 2.43 µM. Moreover, the TGI was 19.8 µM in [1]; > 100 µM in test [2]; 18.2 µM in test [3]; > 100 µM in test [4]; > 70.6 µM in test [5]; > 51.7 µM in test [6]. Besides, the TGI in test [7] is > 20.6 µM; in test [8], 56.8 µM; in test [9], > 28.8 µM; in test [10], 26 µM.
